In this experiment the test system is Elongator complex protein 1 (ELPI, also referred to as IKBKAP). Put plainly: IKBKAP-HTRF assay (IKBKAP protein in lysates of FD patient-derived fibroblasts). It is filed as cell-based, human. Conditions: FD patient-derived fibroblasts GM04589, 48 hours, 7-point concentration curve. The essentials:
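FD patient-derived fibroblasts (10,000/well) treated 48 h at 37 °C with compound across a 7-point 3.16-fold series, in triplicate; lysates assayed by sandwich HTRF with two anti-IKAP antibodies, overnight at 4 °C, 665/620 nm read. MFI = ΔF over vehicle; EC2x = concentration doubling IKBKAP protein versus DMSO.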
(In general: TR-FRET usually uses a lanthanide donor and a delayed reading to cut background.)

As for `C[C@H](N)Cc1c(F)c2c(NCc3cncs3)nc(Cl)nc2n1C.Cl.Cl` [Cpd 48, 6-[(2S)-2-aminopropyl]-2-chloro-5-fluoro-7-methyl-N-[(1,3-thiazol-5-yl)methyl]-7H-pyrrolo[2,3-d]pyrimidin-4-amine dihydrochloride], the “EC2x for IKBKAP protein expression (concentration producing two times the amount of IKBKAP protein vs DMSO vehicle control)” value was “* (An EC2x>1 μM is indicated by one star (*))” and the “MFI (maximum fold increase in IKBKAP protein abundance relative to the vehicle control)” value is recorded as “* (An MFI≤1.9 is indicated by one star (*))”.

For `C[C@H](N)Cc1c(F)c2c(NCc3cccs3)nc(Cl)nc2n1C.Cl` [Cpd 49, 6-[(2S)-2-aminopropyl]-2-chloro-5-fluoro-7-methyl-N-[(thiophen-2-yl)methyl]-7H-pyrrolo[2,3-d]pyrimidin-4-amine hydrochloride], the “EC2x for IKBKAP protein expression (concentration producing two times the amount of IKBKAP protein vs DMSO vehicle control)” value is “**** (between >0.005 μM and ≤0.02 μM is indicated by four stars (****))”; the “MFI (maximum fold increase in IKBKAP protein abundance relative to the vehicle control)” value was “***** (>4.9 is indicated by five stars (*****))”.

In the case of `C[C@H](N)Cc1[nH]c2nc(Cl)nc(NCc3ccccc3)c2c1F.Cl` [Cpd 50, 6-[(2S)-2-aminopropyl]-N-benzyl-2-chloro-5-fluoro-7H-pyrrolo[2,3-d]pyrimidin-4-amine hydrochloride], the “EC2x for IKBKAP protein expression (concentration producing two times the amount of IKBKAP protein vs DMSO vehicle control)” value was “*** (between >0.02 μM and ≤0.5 μM is indicated by three stars (***))”; the “MFI (maximum fold increase in IKBKAP protein abundance relative to the vehicle control)” value is “*** (between >2.9 and ≤3.9 is indicated by three stars (***))”.

Consider `C[C@H](N)Cc1c(F)c2c(NCc3ccccc3)nc(Cl)nc2n1C.Cl` [Cpd 51, 6-[(2S)-2-aminopropyl]-N-benzyl-2-chloro-5-fluoro-7-methyl-7H-pyrrolo[2,3-d]pyrimidin-4-amine hydrochloride], for which the “EC2x for IKBKAP protein expression (concentration producing two times the amount of IKBKAP protein vs DMSO vehicle control)” value was “*** (between >0.02 μM and ≤0.5 μM is indicated by three stars (***))”; the “MFI (maximum fold increase in IKBKAP protein abundance relative to the vehicle control)” value was “*** (between >2.9 and ≤3.9 is indicated by three stars (***))”.

Consider `C[C@H](N)Cc1[nH]c2nc(Cl)nc(NCc3ccccc3F)c2c1F.Cl` [Cpd 52, 6-[(2S)-2-aminopropyl]-2-chloro-5-fluoro-N-[(2-fluorophenyl)methyl]-7H-pyrrolo[2,3-d]pyrimidin-4-amine hydrochloride], for which the “EC2x for IKBKAP protein expression (concentration producing two times the amount of IKBKAP protein vs DMSO vehicle control)” value was “*** (between >0.02 μM and ≤0.5 μM is indicated by three stars (***))”; the “MFI (maximum fold increase in IKBKAP protein abundance relative to the vehicle control)” value was “**** (between >3.9 and ≤4.9 is indicated by four stars (****))”.

As for `C[C@H](N)Cc1c(F)c2c(NCc3ccccc3F)nc(Cl)nc2n1C.Cl` [Cpd 53, 6-[(2S)-2-aminopropyl]-2-chloro-5-fluoro-N-[(2-fluorophenyl)methyl]-7-methyl-7H-pyrrolo[2,3-d]pyrimidin-4-amine hydrochloride], the “EC2x for IKBKAP protein expression (concentration producing two times the amount of IKBKAP protein vs DMSO vehicle control)” value was “*** (between >0.02 μM and ≤0.5 μM is indicated by three stars (***))”; the “MFI (maximum fold increase in IKBKAP protein abundance relative to the vehicle control)” value is “**** (between >3.9 and ≤4.9 is indicated by four stars (****))”.

For the molecule `C[C@H](N)Cc1[nH]c2nc(Cl)nc(NCc3ccccn3)c2c1F.Cl.Cl` [Cpd 54, 6-[(2S)-2-aminopropyl]-2-chloro-5-fluoro-N-[(pyridin-2-yl)methyl]-7H-pyrrolo[2,3-d]pyrimidin-4-amine dihydrochloride], the “EC2x for IKBKAP protein expression (concentration producing two times the amount of IKBKAP protein vs DMSO vehicle control)” value is “*** (between >0.02 μM and ≤0.5 μM is indicated by three stars (***))”; the “MFI (maximum fold increase in IKBKAP protein abundance relative to the vehicle control)” value is “** (between >1.9 and ≤2.9 is indicated by two stars (**))”.

As for `C[C@H](N)Cc1c(F)c2c(NCc3ccccn3)nc(Cl)nc2n1C.Cl.Cl` [Cpd 55, 6-[(2S)-2-aminopropyl]-2-chloro-5-fluoro-7-methyl-N-[(pyridin-2-yl)methyl]-7H-pyrrolo[2,3-d]pyrimidin-4-amine dihydrochloride], the “EC2x for IKBKAP protein expression (concentration producing two times the amount of IKBKAP protein vs DMSO vehicle control)” value was “* (An EC2x>1 μM is indicated by one star (*))” and the “MFI (maximum fold increase in IKBKAP protein abundance relative to the vehicle control)” value is “* (An MFI≤1.9 is indicated by one star (*))”.

On to `C[C@H](N)Cc1[nH]c2nc(Cl)nc(NCc3cccnc3)c2c1F.Cl.Cl` [Cpd 56, 6-[(2S)-2-aminopropyl]-2-chloro-5-fluoro-N-[(pyridin-3-yl)methyl]-7H-pyrrolo[2,3-d]pyrimidin-4-amine dihydrochloride], for which the “EC2x for IKBKAP protein expression (concentration producing two times the amount of IKBKAP protein vs DMSO vehicle control)” value is given as “* (An EC2x>1 μM is indicated by one star (*))” and the “MFI (maximum fold increase in IKBKAP protein abundance relative to the vehicle control)” value was “* (An MFI≤1.9 is indicated by one star (*))”.

For `C[C@H](N)Cc1c(F)c2c(NCc3cccnc3)nc(Cl)nc2n1C.Cl.Cl` [Cpd 57, 6-[(2S)-2-aminopropyl]-2-chloro-5-fluoro-7-methyl-N-[(pyridin-3-yl)methyl]-7H-pyrrolo[2,3-d]pyrimidin-4-amine dihydrochloride], the “EC2x for IKBKAP protein expression (concentration producing two times the amount of IKBKAP protein vs DMSO vehicle control)” value was “* (An EC2x>1 μM is indicated by one star (*))” and the “MFI (maximum fold increase in IKBKAP protein abundance relative to the vehicle control)” value was “* (An MFI≤1.9 is indicated by one star (*))”.

Consider `CC[C@H](N)Cc1[nH]c2nc(Cl)nc(NCc3cccs3)c2c1F.Cl` [Cpd 58, 6-[(2S)-2-aminobutyl]-2-chloro-5-fluoro-N-[(thiophen-2-yl)methyl]-7H-pyrrolo[2,3-d]pyrimidin-4-amine hydrochloride], for which the “EC2x for IKBKAP protein expression (concentration producing two times the amount of IKBKAP protein vs DMSO vehicle control)” value was “*** (between >0.02 μM and ≤0.5 μM is indicated by three stars (***))”; the “MFI (maximum fold increase in IKBKAP protein abundance relative to the vehicle control)” value was “**** (between >3.9 and ≤4.9 is indicated by four stars (****))”.

For `CC[C@H](N)Cc1[nH]c2nc(Cl)nc(NCc3nccs3)c2c1F.Cl` [Cpd 59, 6-[(2S)-2-aminobutyl]-2-chloro-5-fluoro-N-[(1,3-thiazol-2-yl)methyl]-7H-pyrrolo[2,3-d]pyrimidin-4-amine hydrochloride], the “EC2x for IKBKAP protein expression (concentration producing two times the amount of IKBKAP protein vs DMSO vehicle control)” value was “*** (between >0.02 μM and ≤0.5 μM is indicated by three stars (***))”; the “MFI (maximum fold increase in IKBKAP protein abundance relative to the vehicle control)” value is on record as “***** (>4.9 is indicated by five stars (*****))”.

As to `C[C@@H](N)Cc1c(F)c2c(NCc3ccco3)nc(Cl)nc2n1C.Cl` [Cpd 60, 6-[(2R)-2-aminopropyl]-2-chloro-5-fluoro-N-[(furan-2-yl)methyl]-7-methyl-7H-pyrrolo[2,3-d]pyrimidin-4-amine hydrochloride], the “EC2x for IKBKAP protein expression (concentration producing two times the amount of IKBKAP protein vs DMSO vehicle control)” value is “* (An EC2x>1 μM is indicated by one star (*))” and the “MFI (maximum fold increase in IKBKAP protein abundance relative to the vehicle control)” value is “* (An MFI≤1.9 is indicated by one star (*))”.

Regarding `C[C@H](N)Cc1cc2c(NCc3cscn3)nc(Cl)nc2[nH]1` [Cpd 61, 6-[(2S)-2-aminopropyl]-2-chloro-N-[(1,3-thiazol-4-yl)methyl]-7H-pyrrolo[2,3-d]pyrimidin-4-amine], the “EC2x for IKBKAP protein expression (concentration producing two times the amount of IKBKAP protein vs DMSO vehicle control)” value is “* (An EC2x>1 μM is indicated by one star (*))” and the “MFI (maximum fold increase in IKBKAP protein abundance relative to the vehicle control)” value is given as “* (An MFI≤1.9 is indicated by one star (*))”.

`C[C@H](N)Cc1[nH]c2nc(Br)nc(NCc3ccco3)c2c1F` [Cpd 62, 6-[(2S)-2-aminopropyl]-2-bromo-5-fluoro-N-[(furan-2-yl)methyl]-7H-pyrrolo[2,3-d]pyrimidin-4-amine]: the “EC2x for IKBKAP protein expression (concentration producing two times the amount of IKBKAP protein vs DMSO vehicle control)” value was “**** (between >0.005 μM and ≤0.02 μM is indicated by four stars (****))”; the “MFI (maximum fold increase in IKBKAP protein abundance relative to the vehicle control)” value was “***** (>4.9 is indicated by five stars (*****))”.
